From US10131663B2, “Chemical compounds” (AstraZeneca AB, priority 2016, dated 2018)
Values after ≈ are worked out from the molar mass of the structure shown.

How the values were obtained:
[1] = target: recombinant human Estrogen Receptor alpha ligand binding domain (ER alpha-LBD (GST)) (Homo sapiens (Human), UniProt P03372); assay: ERα binding assay (LanthaScreen TR-FRET competition); conditions: TR-FRET, displacement of Fluormone ES2
How it was run: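 Competition binding to GST-tagged human ERα ligand-binding domain, read by LanthaScreen TR-FRET: Tb-anti-GST antibody labels the receptor and compounds displace a fluorescent tracer, lowering the signal. IC50 was taken from dose-response curve fitting.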

[2] = Human Caco-2 bidirectional permeability A to B and B to A; assay type: in vitro ADME; conditions: for Papp at 2 h: Caco-2, 2 hours, pH 7.4; for efflux ratio at 2 h: Caco-2, pH 7.4
Method: An automated assay was used to determine the bidirectional permeability (efflux and uptake) of compounds in Caco-2 cells carried out over 2 hours at pH 7.4.
The efflux ratio (ER) can be determined using the following equation: ER=Papp(B-A)/Papp(A-B) Where Papp (B-A) indicates the apparent permeability coefficient in basolateral to apical direction, and Papp (A-B) indicates the apparent permeability coefficient in apical to basolateral direction. Human Caco-2 Passive Permeability A to B Papp

[3] = target: estrogen receptor (ERα) in CAMA-1 cells (Homo sapiens (Human), UniProt P03372); assay: Western blotting assay, ER down-regulation in CAMA-1; assay type: cell-based; conditions: 100 nM compound, 48 h, normalised to 100 nM fulvestrant
How it was run: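 Cells treated with compounds at 100 nM or 0.1% DMSO vehicle for 48 h at 37 °C, then lysed; ERα detected by western blot with anti-ERα (SP1) rabbit monoclonal. Down-regulation normalised to vehicle (0%) and 100 nM fulvestrant (100%) run on the same gel.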

[4] = target: Estrogen Receptor (ERα) in MCF-7 cells (Homo sapiens (Human), UniProt P03372); assay: MCF-7 ER down-regulation assay (immuno-fluorescence); assay type: cell-based
How it was run: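 Compounds dispensed acoustically from DMSO stocks onto MCF-7 cells; cells fixed 20 min at room temperature, then automated immunostaining for ERα with overnight incubation at 4° C. Read-out is mean total ER fluorescence intensity normalized to cell number (intensity per cell), with curve fitting for concentration-response values.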

[5] = Thermodynamic solubility (shake-flask); assay type: physicochemical; conditions: aqueous phosphate buffer, 25 °C, pH 7.4, aqueous buffer, thermodynamic from solid, aqueous phosphate buffer pH 7.4, 24 hours
How it was run: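 Shake-flask method starting from 10 mM DMSO stocks, which are dried before use. Residue equilibrated 24 h at 25° C. in aqueous phosphate buffer, pH 7.4. Dissolved fraction separated and quantified by UPLC/MS/MS, with QC samples in each run.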

[6] = Human plasma protein binding (equilibrium dialysis); assay type: in vitro ADME; conditions: dialysis 18 hours
How it was run: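 Fraction unbound (fu %) in human plasma, from LC/MSMS of plasma and buffer sides (7-point plasma calibration) after 18 h rapid equilibrium dialysis. Single determinations, with compounds pooled up to 10 per plasma pool.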

[7] = log D (shake flask, 1-octanol/aqueous buffer); assay type: physicochemical
How it was run: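 Distribution between 1-octanol and aqueous buffer at pH 7.4 was measured by shake flask, with compounds run in mixtures of ten. Relative concentrations in each phase were quantified by UPLC with quantitative MS. Caffeine served as a low-log D QC sample in all runs.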

[8] = 1-octanol/aqueous buffer, pH 7.4, pH 7.4, 1-octanol/aqueous buffer
[9] = pH 7.4, 1-octanol/aqueous buffer

Sequence of Estrogen Receptor (ERα) in MCF-7 cells (P03372 whole entry): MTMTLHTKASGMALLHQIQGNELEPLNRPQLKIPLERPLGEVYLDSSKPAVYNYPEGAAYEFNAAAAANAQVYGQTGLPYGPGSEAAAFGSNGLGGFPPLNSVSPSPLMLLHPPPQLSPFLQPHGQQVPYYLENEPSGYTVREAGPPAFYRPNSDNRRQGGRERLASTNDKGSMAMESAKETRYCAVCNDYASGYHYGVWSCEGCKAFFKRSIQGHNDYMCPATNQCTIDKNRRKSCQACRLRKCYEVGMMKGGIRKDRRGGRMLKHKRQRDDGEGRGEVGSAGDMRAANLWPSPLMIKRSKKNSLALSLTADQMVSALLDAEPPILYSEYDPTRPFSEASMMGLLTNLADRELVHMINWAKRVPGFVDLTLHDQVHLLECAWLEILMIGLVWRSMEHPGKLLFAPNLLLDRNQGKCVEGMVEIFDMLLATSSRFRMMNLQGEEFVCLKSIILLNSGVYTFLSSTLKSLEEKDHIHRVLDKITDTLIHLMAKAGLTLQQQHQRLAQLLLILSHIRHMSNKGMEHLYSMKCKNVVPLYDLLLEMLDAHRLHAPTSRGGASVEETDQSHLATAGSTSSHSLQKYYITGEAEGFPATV
Sequence of estrogen receptor (ERα) in CAMA-1 cells (P03372 whole entry): as above
Sequence of recombinant human Estrogen Receptor alpha ligand binding domain (ER alpha-LBD (GST)) (P03372 307-554): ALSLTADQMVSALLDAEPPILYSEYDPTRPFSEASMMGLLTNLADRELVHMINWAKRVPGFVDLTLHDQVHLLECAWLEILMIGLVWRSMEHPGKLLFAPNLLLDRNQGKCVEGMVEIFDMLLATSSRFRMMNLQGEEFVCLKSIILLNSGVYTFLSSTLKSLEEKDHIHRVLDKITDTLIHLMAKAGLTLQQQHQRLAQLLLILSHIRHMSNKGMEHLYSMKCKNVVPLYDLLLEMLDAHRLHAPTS

| SMILES | IC50 [1] | Papp at 2 h [2] | efflux ratio at 2 h [2] | CAMA1 Western % ER deg vs Fv [3] | IC50 [4] | solubility at 24 h [5] | Human plasma protein binding (% free) [6] | logD [7, 8] | logD [7, 9] |
| --- | --- | --- | --- | --- | --- | --- | --- | --- | --- |
| COCC(F)(F)CN1[C@H](c2ccc(NC3CN(CCCF)C3)cc2OC)c2ccc3[nH]ncc3c2C[C@H]1C [Example 1, N-(4-((6S,8R)-7-(2,2-difluoro-3-methoxypropyl)-8-methyl-6,7,8,9-tetrahydro-3H-pyrazolo[4,3-f]isoquinolin-6-yl)-3-methoxyphenyl)-1-(3-fluoropropyl)azetidin-3-amine] | 3.7 nM | 0.9 ×10⁻⁶ cm/s | 9.4 | 92% | 0.1 nM | 379 µM (≈ 201 µg/mL) | 8.3 % free | 3.4 |  |
| COCC(F)(F)CN1[C@H](c2ccc(NC3CN(CCCF)C3)cn2)c2ccc3[nH]ncc3c2C[C@H]1C [Example 2, 6-((6S,8R)-7-(2,2-difluoro-3-methoxypropyl)-8-methyl-6,7,8,9-tetrahydro-3H-pyrazolo[4,3-f]isoquinolin-6-yl)-N-(1-(3-fluoropropyl)azetidin-3-yl)pyridin-3-amine] | 2.8 nM | 3.9 ×10⁻⁶ cm/s | 8.4 | 95% | 3.1 nM | 217 µM (≈ 109 µg/mL) | 28 % free | 2.6 |  |
| C[C@@H]1Cc2c(ccc3[nH]ncc23)[C@@H](c2ccc(NC3CN(CCCF)C3)cn2)N1CC1(F)CC1 [Example 3, 6-((6S,8R)-7-((1-fluorocyclopropyl)methyl)-8-methyl-6,7,8,9-tetrahydro-3H-pyrazolo[4,3-f]isoquinolin-6-yl)-N-(1-(3-fluoropropyl)azetidin-3-yl)pyridin-3-amine] | 6.5 nM | 2.3 ×10⁻⁶ cm/s | 9.2 | 102% | 0.64 nM | > 941 µM | 26 % free |  | 2.5 |
| COc1cc(NC2CN(CCCF)C2)ccc1[C@@H]1c2ccc3[nH]ncc3c2C[C@@H](C)N1CC1(F)CC1 [Example 6, N-(4-((6S,8R)-7-((1-fluorocyclopropyl)methyl)-8-methyl-6,7,8,9-tetrahydro-3H-pyrazolo[4,3-f]isoquinolin-6-yl)-3-methoxyphenyl)-1-(3-fluoropropyl)azetidin-3-amine] | 8.8 nM | 0.9 ×10⁻⁶ cm/s | 28 | 84% | 0.35 nM | > 947 µM | 34 % free |  | 2.4 |
| C[C@@H]1Cc2c(ccc3[nH]ncc23)[C@@H](c2ccc(NC3CN(CCCF)C3)cn2)N1CC(F)(F)CO [Example 16, 2,2-difluoro-3-((6S,8R)-6-(5-((1-(3-fluoropropyl)azetidin-3-yl)amino)pyridin-2-yl)-8-methyl-3,6,8,9-tetrahydro-7H-pyrazolo[4,3-f]isoquinolin-7-yl)propan-1-ol] | 6.9 nM | 1.6 ×10⁻⁶ cm/s | 9.7 | 105% | 0.54 nM | 982 µM (≈ 480 µg/mL) | 64 % free |  | 2 |
| C[C@@H]1Cc2c(ccc3[nH]ncc23)[C@@H](c2ccc(NC3CN(CCCF)C3)cn2)N1CC(F)(F)F [Example 17, N-(1-(3-fluoropropyl)azetidin-3-yl)-6-((6S,8R)-8-methyl-7-(2,2,2-trifluoroethyl)-6,7,8,9-tetrahydro-3H-pyrazolo[4,3-f]isoquinolin-6-yl)pyridin-3-amine] |  | 4.7 ×10⁻⁶ cm/s |  | 96% |  | 833 µM (≈ 397 µg/mL) | 23 % free | 2.9 |  |
| C[C@@H]1Cc2c(ccc3[nH]ncc23)[C@@H](c2ncc(NC3CN(CCCF)C3)cc2F)N1CC1(F)CC1 [Example 18, 5-fluoro-6-((6S,8R)-7-((1-fluorocyclopropyl)methyl)-8-methyl-6,7,8,9-tetrahydro-3H-pyrazolo[4,3-f]isoquinolin-6-yl)-N-(1-(3-fluoropropyl)azetidin-3-yl)pyridin-3-amine] | 29 nM |  |  | 95% | 0.42 nM | 910 µM (≈ 441 µg/mL) | 34 % free | 2.6 |  |
| COc1cc(NC2CN(CCCF)C2)ccc1[C@@H]1c2ccc3[nH]ncc3c2C[C@@H](C)N1CC(C)(F)F [Example 19, N-(4-((6S,8R)-7-(2,2-difluoropropyl)-8-methyl-6,7,8,9-tetrahydro-3H-pyrazolo[4,3-f]isoquinolin-6-yl)-3-methoxyphenyl)-1-(3-fluoropropyl)azetidin-3-amine] | 2.6 nM | 4.2 ×10⁻⁶ cm/s | 2.6 | 94% | 0.063 nM | 152 µM (≈ 76.2 µg/mL) | 4.3 % free |  | 3.7 |
| COc1cc(NC2CN(CCCF)C2)ccc1[C@@H]1c2ccc3[nH]ncc3c2C[C@@H](C)N1CC(F)F [Example 21, N-(4-((6S,8R)-7-(2,2-difluoroethyl)-8-methyl-6,7,8,9-tetrahydro-3H-pyrazolo[4,3-f]isoquinolin-6-yl)-3-methoxyphenyl)-1-(3-fluoropropyl)azetidin-3-amine] | 2.1 nM | 4 ×10⁻⁶ cm/s | 1.6 | 101% | 0.098 nM | 634 µM (≈ 309 µg/mL) | 12 % free | 3.1 |  |
| C[C@@H]1Cc2c(ccc3[nH]ncc23)[C@@H](c2ccc(NC3CN(CCCF)C3)cn2)N1CC(F)F [Example 25, 6-((6S,8R)-7-(2,2-difluoroethyl)-8-methyl-6,7,8,9-tetrahydro-3H-pyrazolo[4,3-f]isoquinolin-6-yl)-N-(1-(3-fluoropropyl)azetidin-3-yl)pyridin-3-amine] | 4.1 nM | 5 ×10⁻⁶ cm/s | 7.4 | 96% | 0.33 nM | 964 µM (≈ 442 µg/mL) | 40 % free | 2.5 |  |
| C[C@@H]1Cc2c(ccc3[nH]ncc23)[C@@H](c2ccc(NC3CN(CCCF)C3)cc2)N1CC(F)(F)F [Example 27, 1-(3-Fluoropropyl)-N-(4-((6R,8R)-8-methyl-7-(2,2,2-trifluoroethyl)-6,7,8,9-tetrahydro-3H-pyrazolo[4,3-f]isoquinolin-6-yl)phenyl)azetidin-3-amine] | 0.81 nM | 5.4 ×10⁻⁶ cm/s | 0.9 | 108% | 0.05 nM | 229 µM (≈ 109 µg/mL) | 3.8 % free | 3.8 |  |
| C[C@@H]1Cc2c(ccc3[nH]ncc23)[C@@H](c2ccc(NC3CN(CCCF)C3)cc2)N1CC(F)F [Example 48, N-(4-((6R,8R)-7-(2,2-difluoroethyl)-8-methyl-6,7,8,9-tetrahydro-3H-pyrazolo[4,3-f]isoquinolin-6-yl)phenyl)-1-(3-fluoropropyl)azetidin-3-amine] | 1.5 nM |  |  | 94% | 0.078 nM | 582 µM (≈ 266 µg/mL) | 10 % free | 3.1 |  |
